PMC12467033, “Exploring the Inhibitory Potential of Six Porphyrin Compounds Against α-Amylase and α-Glucosidase Linked to Diabetes” (Biomolecules, 2025)
“And” between values parts separate entries of the source, which are not always exact repeats. Equal entries are not always repeated.

Key:
[1] = biological target: T1, α-amylase (Sus scrofa, UniProt P00690); assay: Mode of α-AMY inhibition (reversibility, Lineweaver–Burk kinetics); format: biochemical; details: for type of inhibition of α-amylase: Lineweaver–Burk plots; for reversibility of inhibition of α-amylase: enzyme 100–400 U/L, substrate 5 mmol/L; for Kis: enzyme–substrate complex inhibition constant
T1 sequence (P00690 16-511): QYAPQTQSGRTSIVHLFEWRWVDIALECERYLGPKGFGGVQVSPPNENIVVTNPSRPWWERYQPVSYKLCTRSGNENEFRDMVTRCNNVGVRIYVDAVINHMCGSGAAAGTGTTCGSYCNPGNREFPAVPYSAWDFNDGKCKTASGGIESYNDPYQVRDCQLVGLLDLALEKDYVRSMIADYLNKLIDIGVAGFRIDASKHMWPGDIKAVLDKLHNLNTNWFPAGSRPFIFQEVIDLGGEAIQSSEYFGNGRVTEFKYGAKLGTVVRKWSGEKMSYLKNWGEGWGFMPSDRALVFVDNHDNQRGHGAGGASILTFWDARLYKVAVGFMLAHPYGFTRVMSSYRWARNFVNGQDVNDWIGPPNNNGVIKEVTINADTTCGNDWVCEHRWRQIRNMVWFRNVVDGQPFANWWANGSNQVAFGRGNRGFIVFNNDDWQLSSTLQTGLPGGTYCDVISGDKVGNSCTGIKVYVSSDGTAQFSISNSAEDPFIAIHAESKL

[2] = biological target: T1, α-amylase; assay: Fluorescence quenching, binding and thermodynamics with α-amylase; details: for quenching mechanism of α-amylase fluorescence: Stern–Volmer plots; for quenching mechanism of α-amylase fluorescence / ΔH^0 / ΔS^0: 298–310 K; for ΔH^0 / ΔS^0: Van’t Hoff
Procedure, shortened: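 Porcine α-amylase (200 U/L) mixed 1:1 with porphyrins, and intrinsic fluorescence quenching corrected for the inner-filter effect. KSV and Kq derived from linear or exponential Stern–Volmer fits with τ0 10^−8 s. ΔH^0, ΔS^0 and ΔG^0 obtained from Van't Hoff plots of lnKa against 1/T.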

[3] = biological target: T2, α-glucosidase (Saccharomyces cerevisiae, UniProt P53341); assay: Fluorescence quenching, binding and thermodynamics with α-glucosidase; details: for binding constants K: 310 K; for quenching mechanism of α-glucosidase fluorescence: Stern–Volmer plots; for quenching mechanism of α-glucosidase fluorescence / ΔH^0 / ΔS^0: 298–310 K; for ΔH^0 / ΔS^0: Van’t Hoff
T2 sequence (P53341 whole entry): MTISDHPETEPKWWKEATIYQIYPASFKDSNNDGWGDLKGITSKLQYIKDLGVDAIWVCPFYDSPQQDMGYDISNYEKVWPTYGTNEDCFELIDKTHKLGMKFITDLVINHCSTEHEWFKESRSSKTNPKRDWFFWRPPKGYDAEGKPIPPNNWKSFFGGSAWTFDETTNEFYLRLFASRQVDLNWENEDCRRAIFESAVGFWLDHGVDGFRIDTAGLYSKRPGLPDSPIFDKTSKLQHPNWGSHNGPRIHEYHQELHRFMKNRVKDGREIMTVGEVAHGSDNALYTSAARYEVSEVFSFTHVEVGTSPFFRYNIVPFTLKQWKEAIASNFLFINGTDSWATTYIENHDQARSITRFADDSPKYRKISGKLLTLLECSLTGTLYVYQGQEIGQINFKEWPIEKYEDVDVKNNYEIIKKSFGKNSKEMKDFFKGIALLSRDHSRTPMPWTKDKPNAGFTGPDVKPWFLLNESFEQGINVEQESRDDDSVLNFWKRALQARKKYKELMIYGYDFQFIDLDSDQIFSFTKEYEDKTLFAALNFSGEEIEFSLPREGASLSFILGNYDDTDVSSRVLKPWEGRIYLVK
Procedure, shortened: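 Enzyme at 400 U/L mixed 1:1 with porphyrins, held 30 min at 298, 304 and 310 K; excitation 280 nm, emission 300–500 nm, inner-filter corrected. Quenching constants from Stern–Volmer fits; ΔH^0, ΔS^0 and ΔG^0 from van't Hoff plot of lnKa versus 1/T.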

[4] = biological target: T1, α-amylase; assay: FTIR secondary structure analysis of α-AMY complexes; details: enzyme–porphyrin molar ratio 1:2, amide I band
Procedure, shortened: (§1)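 Enzyme–porphyrin at 1:2 molar ratio was dried and pressed in KBr, then scanned at 4000–400 cm^−1 with 4 cm^−1 resolution. Secondary-structure content came from curve-fitting the amide I band (1700–1600 cm^−1) into sub-peaks.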

[5] = biological target: T2, α-glucosidase; assay: FTIR secondary structure analysis of α-GLU complexes; details: enzyme–porphyrin molar ratio 1:2, amide I band
Procedure, shortened: as §1

In the case of `Nc1ccc(-c2c3nc(c(-c4ccc(N)cc4)c4ccc([nH]4)c(-c4ccc(N)cc4)c4nc(c(-c5ccc(N)cc5)c5ccc2[nH]5)C=C4)C=C3)cc1` [TAPP], the Vmax ([1]; C 2 μg/mL) is reported as 0.1670 ± 0.0030 ΔOD/min, the Vmax ([1]; C 4 μg/mL) is reported as 0.1562 ± 0.0039 ΔOD/min and the Vmax ([1]; C 6 μg/mL) is reported as 0.1425 ± 0.0032 ΔOD/min. The Vmax ([1]; C 8 μg/mL) was 0.1328 ± 0.0034 ΔOD/min, the Vmax ([1]; C 10 μg/mL) was 0.1243 ± 0.0028 ΔOD/min and the “type of inhibition of α-amylase” value [1] was “mixed type”. For the same molecule, the “reversibility of inhibition of α-amylase” value [1] was “reversible inhibition”, the Kis [1] was 21.2847 ± 0.0677 µg/mL and the “quenching mechanism of α-amylase fluorescence” value [2] was “pure static quenching”. The Kq ([2]; T 298 K) was 4.07 ± 0.05 ×10^12 L/mol/s, the Ksv ([2]; T 298 K) was 4.07 ± 0.05 ×10^4 L/mol and the “n (number of binding sites)” value ([2]; T 298 K) was 1.48. The “ΔG^0” value ([2]; T 298 K) was -9.168 ± 0.0263 kcal/mol, the Kq ([2]; T 304 K) was 3.37 ± 0.02 ×10^12 L/mol/s and the Ksv ([2]; T 304 K) was 3.37 ± 0.02 ×10^4 L/mol. The “n (number of binding sites)” value ([2]; T 304 K) was 1.40, the “ΔG^0” value ([2]; T 304 K) was -8.817 ± 0.0287 kcal/mol and the Kq ([2]; T 310 K) was 3.07 ± 0.09 ×10^12 L/mol/s. For the same molecule, the Ksv ([2]; T 310 K) was 3.07 ± 0.09 ×10^4 L/mol, the “n (number of binding sites)” value ([2]; T 310 K) was 1.31 and the “ΔG^0” value ([2]; T 310 K) was -8.329 ± 0.0239 kcal/mol. For the same molecule, the “ΔH^0” value [2] was -29.935 ± 0.0287 kcal/mol, the “ΔS^0” value [2] was −291.29 ± 0.12 J/mol/k and the “binding constants K” value [3] was “(0.65 ± 0.02) × 10^5 L·mol^−1”. For the same molecule, the “quenching mechanism of α-glucosidase fluorescence” value [3] was “static quenching”, the Kq ([3]; T 298 K) was 6.25 ± 0.04 ×10^12 L/mol/s and the Ksv ([3]; T 298 K) was 6.25 ± 0.04 ×10^4 L/mol. For the same molecule, the “n (number of binding sites)” value ([3]; T 298 K) was 1.14, the “ΔG^0” value ([3]; T 298 K) was -7.424 ± 0.019 kcal/mol and the Kq ([3]; T 304 K) was 5.71 ± 0.01 ×10^12 L/mol/s. For the same molecule, the Ksv ([3]; T 304 K) was 5.71 ± 0.01 ×10^4 L/mol, the “n (number of binding sites)” value ([3]; T 304 K) was 1.09 and the “ΔG^0” value ([3]; T 304 K) was -7.165 ± 0.012 kcal/mol. The Kq ([3]; T 310 K) was 5.66 ± 0.02 ×10^12 L/mol/s, the Ksv ([3]; T 310 K) was 5.66 ± 0.02 ×10^4 L/mol and the “n (number of binding sites)” value ([3]; T 310 K) was 1.01. The “ΔG^0” value ([3]; T 310 K) was -6.826 ± 0.012 kcal/mol, the “ΔH^0” value [3] was -22.23 ± 0.019 kcal/mol and the “ΔS^0” value [3] was −207.76 ± 0.14 J/mol/k. For the same molecule, the “Random Coil” value [4] was 9.94% and 9.94 ± 0.02%, the α-Helix [4] was 22.45 ± 0.07% and the β-Antiparallel [4] was 18.98% and 18.98 ± 0.04%. The β-Sheet [4] was 14.62 ± 0.03%, the β-Turn [4] was 34.00 ± 0.09% and the “Random Coil” value [5] was 23.93 ± 0.05%. It also gave a α-Helix [5] of 22.82 ± 0.08%, a β-Antiparallel [5] of 1.96 ± 0.01% and a β-Sheet [5] of 12.99 ± 0.13%. It also gave a β-Turn [5] of 38.30 ± 0.08%.

In the case of “iron (III) meso-tetra (4-carboxyphenyl) porphyrin chloride [Fe–TCPP]”, the Km ([1]; C 25 μg/mL) is reported as 2.7329 ± 0.0882 µg/mL, the Vmax ([1]; C 25 μg/mL) is reported as 0.1143 ± 0.0037 ΔOD/min and the Km ([1]; C 50 μg/mL) is reported as 2.9384 ± 0.0447 µg/mL. The Vmax ([1]; C 50 μg/mL) was 0.0972 ± 0.0015 ΔOD/min, the Km ([1]; C 100 μg/mL) was 3.2079 ± 0.1016 µg/mL and the Vmax ([1]; C 100 μg/mL) was 0.0748 ± 0.0024 ΔOD/min. For the same molecule, the Km ([1]; C 150 μg/mL) was 3.3360 ± 0.0508 µg/mL, the Vmax ([1]; C 150 μg/mL) was 0.0601 ± 0.0009 ΔOD/min and the Km ([1]; C 200 μg/mL) was 3.4920 ± 0.0491 µg/mL. For the same molecule, the Vmax ([1]; C 200 μg/mL) was 0.0512 ± 0.0007 ΔOD/min, the “type of inhibition of α-amylase” value [1] was “mixed type” and the “reversibility of inhibition of α-amylase” value [1] was “reversible inhibition”. The Kis [1] was 117.2152 ± 0.1432 µg/mL, the Ki ([1]; free enzyme inhibition constant) was 69.5865 ± 0.1284 µg/mL and the “quenching mechanism of α-amylase fluorescence” value [2] was “mixed quenching”. For the same molecule, the “Ka (binding constant)” value ([2]; T 298 K) was 944.30 ± 0.18 ×10^5 L/mol, the Kq ([2]; T 298 K) was 4.32 ± 0.06 ×10^12 L/mol/s and the Ksv ([2]; T 298 K) was 4.32 ± 0.06 ×10^4 L/mol. The “n (number of binding sites)” value ([2]; T 298 K) was 1.65, the “ΔG^0” value ([2]; T 298 K) was -10.87 ± 0.017 kcal/mol and the “Ka (binding constant)” value ([2]; T 304 K) was 40.38 ± 0.09 ×10^5 L/mol. The Kq ([2]; T 304 K) was 3.36 ± 0.06 ×10^12 L/mol/s, the Ksv ([2]; T 304 K) was 3.36 ± 0.06 ×10^4 L/mol and the “n (number of binding sites)” value ([2]; T 304 K) was 1.38. For the same molecule, the “ΔG^0” value ([2]; T 304 K) was -9.19 ± 0.014 kcal/mol, the “Ka (binding constant)” value ([2]; T 310 K) was 2.13 ± 0.05 ×10^5 L/mol and the Kq ([2]; T 310 K) was 3.29 ± 0.08 ×10^12 L/mol/s. The Ksv ([2]; T 310 K) was 3.29 ± 0.08 ×10^4 L/mol, the “n (number of binding sites)” value ([2]; T 310 K) was 1.05 and the “ΔG^0” value ([2]; T 310 K) was -7.557 ± 0.019 kcal/mol. The “ΔH^0” value [2] was -93.248 ± 0.0406 kcal/mol, the “ΔS^0” value [2] was −1156.68 ± 0.13 J/mol/k and the “binding constants K” value [3] was “(1.02 ± 0.02) × 10^5 L·mol^−1”. For the same molecule, the “quenching mechanism of α-glucosidase fluorescence” value [3] was “static quenching”, the “Ka (binding constant)” value ([3]; T 298 K) was 1.65 ± 0.03 ×10^5 L/mol and the Kq ([3]; T 298 K) was 14.52 ± 0.07 ×10^12 L/mol/s. For the same molecule, the Ksv ([3]; T 298 K) was 14.52 ± 0.07 ×10^4 L/mol, the “n (number of binding sites)” value ([3]; T 298 K) was 1.01 and the “ΔG^0” value ([3]; T 298 K) was -7.113 ± 0.012 kcal/mol. For the same molecule, the “Ka (binding constant)” value ([3]; T 304 K) was 1.26 ± 0.03 ×10^5 L/mol, the Kq ([3]; T 304 K) was 13.18 ± 0.05 ×10^12 L/mol/s and the Ksv ([3]; T 304 K) was 13.18 ± 0.05 ×10^4 L/mol. The “n (number of binding sites)” value ([3]; T 304 K) was 1.00, the “ΔG^0” value ([3]; T 304 K) was -7.094 ± 0.017 kcal/mol and the “Ka (binding constant)” value ([3]; T 310 K) was 1.02 ± 0.02 ×10^5 L/mol. The Kq ([3]; T 310 K) was 12.20 ± 0.07 ×10^12 L/mol/s, the Ksv ([3]; T 310 K) was 12.20 ± 0.07 ×10^4 L/mol and the “n (number of binding sites)” value ([3]; T 310 K) was 0.98. The “ΔG^0” value ([3]; T 310 K) was -7.103 ± 0.014 kcal/mol, the “ΔH^0” value [3] was -7.385 ± 0.014 kcal/mol and the “ΔS^0” value [3] was −3.88 ± 0.01 J/mol/k. For the same molecule, the “Random Coil” value [4] was 22.59 ± 0.03%, the α-Helix [4] was 21.77 ± 0.07% and the β-Antiparallel [4] was 8.76 ± 0.02%. The β-Sheet [4] was 12.86 ± 0.04%, the β-Turn [4] was 34.02 ± 0.08% and the “Random Coil” value [5] was 16.75% and 16.75 ± 0.03%. For the same molecule, the α-Helix [5] was 22.48 ± 0.05% and the β-Antiparallel [5] was 8.02% and 8.02 ± 0.02%.
